Assay results taken from patent US4016159A, “Acylamino-cephem-carboxylic acids containing an amidino or guanidino group in the molecule” (Hoechst Aktiengesellschaft, priority 1973, dated 1977).
In brackets after ≈: the same amount, converted by molar mass. Where a name gives a salt, the structure may show the parent alone.

Columns and labels:
Assay type in all cases: cell-based
[1] = system: Staphylococcus aureus 285; assay: Minimum inhibition concentration (MIC), Table 1; settings: for MIC: Staphylococcus aureus, 285, Germ: Staphylococcus aureus 285, read-out: Minimum inhibition concentration (MIC)
Description: (§1) Minimum inhibition concentration (MIC) in γ/ml
Germ: Staphylococcus aureus 285

[2] = system: Streptococcus pyogenes A; assay: Minimum inhibition concentration (MIC), Table 3; settings: Germ: Streptococcus pyogenes A; for MIC: read-out: Minimum inhibition concentration MIC
Description: Minimum inhibition concentration MIC in γ/ml
Germ: Streptococcus pyogenes A

[3] = system: Streptococcus D; assay: Minimum inhibition concentration (MIC), Table 4; settings: Germ: Streptococcus D; for MIC: Streptococcus, read-out: Minimum inhibition concentration (MIC)
Description: as §1

[4] = system: Staphylococcus aureus SG 511; assay: Minimum inhibition concentration (MIC), Table 5; settings: for MIC: Staphylococcus aureus, SG511, Germ: Staphylococcus aureus SG 511, read-out: Minimum inhibition concentration (MIC); for Minimum inhibition concentration (MIC): Germ: Staphylococcus aureus SG 511
Description: as §1
Germ: Staphylococcus aureus SG 511

Row | Compound | MIC [1] | MIC [2] | MIC [3] | further results
1 | CCCc1nnc(SCC2=C(C(=O)O)N3C(=O)C(NC(=O)COc4ccc(C5=NCCN5)cc4)C3SC2)o1 (stereo not shown) [Example 41, 3-[(5-n-propyl-1,3,4-oxadiazole-2-yl)-thiomethyl]-7-[4-(imidazoline-2-yl)-phenoxyacetamido]-Δ 3-cephem-4-carboxylic acid] | 0.5 to 1.25 mg/L (≈ 0.895 to 2.24 µM) | 0.000391 to 0.0078 mg/L (≈ 0.0007 to 0.014 µM) | 10 to 50 mg/L (≈ 17.9 to 89.5 µM) | 
2 | COc1cc(C(=N)N)ccc1OCC(=O)NC1C(=O)N2C(C(=O)O)=C(CSc3nncs3)CSC12 (stereo not shown) [Example 127] | 0.156 to 0.391 mg/L (≈ 0.291 to 0.729 µM) | 0.000391 to 0.0078 mg/L (≈ 0.000729 to 0.0145 µM) |  | MIC [4]: 0.0625 to 0.078 mg/L (≈ 0.116 to 0.145 µM)
3 | CCCCc1nnc(SCC2=C(C(=O)O)N3C(=O)C(NC(=O)Cc4ccc(C5=NCCCN5)cc4)C3SC2)o1 (stereo not shown) [Example 81, 3-[(5-n-butyl-1,3,4-oxadiazole-2-yl)-thiomethyl]-7-[4-(1,4,5,6-tetrahydropyrimide-2-yl)-phenyl-acetamido]-Δ 3-cephem-4-carboxylic acid] | 1.6 to 2.5 mg/L (≈ 2.8 to 4.38 µM) | 0.008 to 0.0156 mg/L (≈ 0.014 to 0.0273 µM) | 10 to 50 mg/L (≈ 17.5 to 87.6 µM) | 
4 | Cc1cc(C)nc(SCC2=C(C(=O)O)N3C(=O)C(NC(=O)Cc4ccc(C5=NCCCN5)cc4)C3SC2)n1 (stereo not shown) [Example 98] | 0.5 to 1.25 mg/L (≈ 0.905 to 2.26 µM) | 0.000391 to 0.0078 mg/L (≈ 0.000707 to 0.0141 µM) | 10 to 50 mg/L (≈ 18.1 to 90.5 µM) | 
5 | CCCc1nnc(SCC2=C(C(=O)O)N3C(=O)C(NC(=O)Cc4ccc(C5=NCCCN5)cc4)C3SC2)o1 (stereo not shown) [Example 82, 3-[(5-n-propyl-1,3,4-oxadiazole-2-yl)-thiomethyl]-7-[4-(1,4,5,6-tetrahydropyrimide-2-yl)-phenylacetamido-]-Δ 3-cephem-4-carboxylic acid] | 0.5 to 1.25 mg/L (≈ 0.898 to 2.25 µM) | 0.008 to 0.0156 mg/L (≈ 0.0144 to 0.028 µM) | 10 to 50 mg/L (≈ 18 to 89.8 µM) | 
6 | N=C(N)c1ccc(CC(=O)NC2C(=O)N3C(C(=O)O)=C(CSc4nnco4)CSC23)cc1 (stereo not shown) [Example 61, 3-[(1,3,4-oxadiazole-2-yl)-thiomethyl]-7-(4-amidino-phenylacetamido)-Δ 3-cephem-4-carboxylic acid] | 0.5 to 1.25 mg/L (≈ 1.05 to 2.63 µM) | 0.008 to 0.0156 mg/L (≈ 0.0169 to 0.0329 µM) | 10 to 50 mg/L (≈ 21.1 to 105 µM) | 
7 | Cc1nnc(SCC2=C(C(=O)O)N3C(=O)C(NC(=O)COc4ccc(C5=NCCN5)cc4)C3SC2)s1 (stereo not shown) [Example 75, 3-[(5-methyl-1,3,4-thiadiazole-2-yl)-thiomethyl]-7-[4-(imidazoline-2-yl)-phenoxyacetamido]-Δ 3-cephem-4-carboxylic acid] | 0.5 to 1.25 mg/L (≈ 0.915 to 2.29 µM) | 0.000391 to 0.0078 mg/L (≈ 0.000715 to 0.0143 µM) | 10 to 50 mg/L (≈ 18.3 to 91.5 µM) | 
8 | CCc1nnc(SCC2=C(C(=O)O)N3C(=O)C(NC(=O)Cc4ccc(C5=NCCCN5)cc4)C3SC2)[nH]1 (stereo not shown) [Example 95, 3-[(5-ethyl-triazole-2-yl)-thiomethyl]-7-[4-(1,4,5,6-tetrahydro-pyrimide-2-yl)-phenylacetamido]-Δ3-cephem-4-carboxylic acid] |  |  |  | Minimum inhibition concentration (MIC) ([1]; Germ: Staphylococcus aureus 285): 1.6 to 2.5 mg/L; Minimum inhibition concentration (MIC) [2]: 0.008 to 0.0156 mg/L; Minimum inhibition concentration (MIC) [3]: 10 to 50 mg/L
9 | Cc1nnc(SCC2=C(C(=O)O)N3C(=O)C(NC(=O)COc4ccc(C(=N)N)cc4)C3SC2)s1 (stereo not shown) [Example 35, 3-[(5-methyl-1,3,4-thiadiazole-2-yl)-thiomethyl]-7-[4-amidinophenoxy-acetamido]-Δ 3-cephem-4-carboxylic acid hydrochloride] |  | 0.000391 to 0.0078 mg/L | 10 to 50 mg/L | Minimum inhibition concentration (MIC) ([4]; hydrochloride): 0.0625 to 0.078 mg/L
10 | Cc1nnc(SCC2=C(C(=O)O)N3C(=O)C(NC(=O)Cc4ccc(C(=N)N)cc4)C3SC2)s1 (stereo not shown) [Example 26, 3-[(5-methyl-1,3,4-thiadiazole-2-yl)-thiomethyl]-7-(4-amidinophenylacetamido)-Δ 3-cephem-4-carboxylic acid] |  |  | 10 to 50 mg/L (≈ 19.8 to 99.1 µM) | MIC [4]: 0.0625 to 0.078 mg/L (≈ 0.124 to 0.155 µM)
11 | N=C(N)c1ccc(CC(=O)NC2C(=O)N3C(C(=O)O)=C(CSc4ccc5ccccc5n4)CSC23)cc1 (stereo not shown) [Example 91, 3-quinoline[-2-yl-thiomethyl]-7-[4-amidino-phenyl-acetamido]-Δ 3-cephem-4-carboxylic acid] | 0.156 to 0.391 mg/L (≈ 0.292 to 0.733 µM) | 0.000391 to 0.0078 mg/L (≈ 0.000733 to 0.0146 µM) |  | MIC [4]: 0.0625 to 0.078 mg/L (≈ 0.117 to 0.146 µM)
12 | N=C(N)c1ccc(CC(=O)NC2C(=O)N3C(C(=O)O)=C(CSc4nnc(N)s4)CSC23)cc1 (stereo not shown) [Example 59, 3-[(5-amino-1,3,4-thiadiazole-2-yl)-thiomethyl]-7-(4-amidinophenylacetamido)-Δ 3-cephem-4-carboxlic acid] | 0.5 to 1.25 mg/L (≈ 0.989 to 2.47 µM) | 0.000391 to 0.0078 mg/L (≈ 0.000773 to 0.0154 µM) | 10 to 50 mg/L (≈ 19.8 to 98.9 µM) | 
13 | Cc1nnc(SCC2=C(C(=O)O)N3C(=O)C(NC(=O)COc4ccc(C(=N)N)cc4)C3SC2)s1 (stereo not shown) [Example 46, 3-[(5-methyl-1,3,4-thiadiazole-2-yl)-thiomethyl]-7-[4-amidinophenoxyacetamido]-Δ 3-cephem-4-carboxylic acid] | 0.5 to 1.25 mg/L (≈ 0.96 to 2.4 µM) |  |  | Minimum inhibition concentration (MIC) [4]: 0.0196 to 0.0391 mg/L
14 | Cc1ccnc(SCC2=C(C(=O)O)N3C(=O)C(NC(=O)Cc4ccc(C5=NCCCN5)cc4)C3SC2)n1 (stereo not shown) [Example 102, 3-[(4-methyl-pyrimide-2-yl)-thiomethyl]-7-[4-(1,4,5,6-tetrahydropyrimide-2-yl)-phenylacetamido]-Δ3-cephem-4-carboxylic acid] | 1.6 to 2.5 mg/L (≈ 2.97 to 4.64 µM) | 0.008 to 0.0156 mg/L (≈ 0.0149 to 0.029 µM) | 10 to 50 mg/L (≈ 18.6 to 92.8 µM) | 
